Laboratory results published in patent US10092002B2, “Herbicidal composition comprising nicosulfuron or its salt and S -metolachlor or its salt” (ISHIHARA SANGYO KAISHA, LTD., priority 2011, dated 2018).

Columns and labels:
Format in all cases: in vivo
[1] = tested on: spotted knotweed (Polygonum lapathifolium L.); experiment: Test Example 7: soil treatment, residual activity, spotted knotweed sown 14 days after treatment; conditions: seeds sown on the 14th day after treatment, 21st day after sowing
Description: When the herbicidal activity in a case where two active ingredients are combined, is larger than the simple sum of the respective herbicidal activities of the two active ingredients (the expected activity), it is called a synergistic effect. The activity expected by the combination of two active ingredients can be calculated as follows (Colby S. R., “Weed”, vol. 15, p. 20-22, 1967). E1=α+β-(α×β÷100) On the 22nd day after treatment, the state of growth of the common cocklebur was visually observed to determine the growth inhibition rate in accordance with the following evaluation standard. The growth inhibition rate (%) (measured value) and the growth inhibition rate (%) (calculated value) calculated by the Colby's formula are shown in Table 1. […] Upland field soil was put into a 1/500,000 ha pot, and on the next day, predetermined amounts of […] Dual Gold (tradename) were diluted with water (corresponding to 300 L/ha) and applied for soil treatment by a small sprayer. On the 14th day after treatment, seeds of Japanese bristlegrass (Setaria faberi Herrm) and spotted knotweed, (Polygonum lapathifolium L.) were sown. On the 21st day after sowing, the state of growth of the Japanese bristlegrass and the spotted knotweed was visually observed to determined the growth inhibition rate.

[2] = tested on: summergrass (Digitaria ciliaris (Retz.) Koel); experiment: Test Example 5: foliar treatment of summergrass in 7 to 9-leaf stage, visual growth inhibition rate; conditions: foliar treatment at 7 to 9-leaf stage, 14th day after treatment
Description: When the herbicidal activity in a case where two active ingredients are combined, is larger than the simple sum of the respective herbicidal activities of the two active ingredients (the expected activity), it is called a synergistic effect. The activity expected by the combination of two active ingredients can be calculated as follows (Colby S. R., “Weed”, vol. 15, p. 20-22, 1967). E1=α+β-(α×β÷100) On the 22nd day after treatment, the state of growth of the common cocklebur was visually observed to determine the growth inhibition rate in accordance with the following evaluation standard. The growth inhibition rate (%) (measured value) and the growth inhibition rate (%) (calculated value) calculated by the Colby's formula are shown in Table 1. […] Upland field soil was put into a 1/1,000,000 ha pot, and seeds of summergrass (Digitaria ciliaris (Retz.) Koel) were sown. When the summergrass reached 7 to 9-leaf stage, predetermined amounts of […] Dual Gold (tradename) were diluted with water (corresponding to 300 L/ha) and applied for foliar treatment by a small sprayer. On the 14th day after treatment, the state of growth of the summergrass was visually observed to determine the growth inhibition rate.

[3] = tested on: annual bluegrass (Poa annua L.) having lowered sensitivity to herbicides; experiment: Test Example 8: foliar treatment of annual bluegrass having lowered sensitivity to herbicides, visual growth inhibition rate; conditions: foliar treatment at 5 to 6-leaf stage, 14th day after treatment
Description: When the herbicidal activity in a case where two active ingredients are combined, is larger than the simple sum of the respective herbicidal activities of the two active ingredients (the expected activity), it is called a synergistic effect. The activity expected by the combination of two active ingredients can be calculated as follows (Colby S. R., “Weed”, vol. 15, p. 20-22, 1967). E1=α+β−(α×β÷100)
Growth inhibition rate (%)=0 (equivalent to the non-treated area) to 100 (complete kill)
Upland field soil was put into a 1/1,000,000 ha pot, and seeds of annual bluegrass (Poa annua L.) having lowered sensitivity to herbicides were sown. When the annual bluegrass reached 5 to 6-leaf stage, predetermined amounts of ONEHOPE NYUZAI (tradename) and Dual Gold (tradename) were diluted with water (corresponding to 300 L/ha) and applied for foliar treatment by a small sprayer.
The growth inhibition rate (%) (measured value) and the growth inhibition rate (%) calculated in the same manner as in Test Example 1 are shown in Table 9.

[4] = tested on: wild oat (Avena fatua L.); experiment: Test Example 3: soil treatment, wild oat, visual growth inhibition rate; conditions: soil treatment the day after sowing, 14th day after treatment
Description: When the herbicidal activity in a case where two active ingredients are combined, is larger than the simple sum of the respective herbicidal activities of the two active ingredients (the expected activity), it is called a synergistic effect. The activity expected by the combination of two active ingredients can be calculated as follows (Colby S. R., “Weed”, vol. 15, p. 20-22, 1967). […] In a case where three active ingredients are combined, the activity can be similarly calculated as follows. […] On the 22nd day after treatment, the state of growth of the common cocklebur was visually observed to determine the growth inhibition rate in accordance with the following evaluation standard. The growth inhibition rate (%) (measured value) and the growth inhibition rate (%) (calculated value) calculated by the Colby's formula are shown in Table 1. […] On the 14th day after treatment, the state of growth of the wild oat was visually observed to determine the growth inhibition rate.

[5] = tested on: green kyllinga (Kyllinga brevifolia Rottb. var. leiolepis) having lowered sensitivity to herbicides; experiment: Test Example 6: foliar treatment of green kyllinga having lowered sensitivity to herbicides, visual growth inhibition rate; conditions: foliar treatment at height 5 to 7 cm, 21st day after treatment
Description: When the herbicidal activity in a case where two active ingredients are combined, is larger than the simple sum of the respective herbicidal activities of the two active ingredients (the expected activity), it is called a synergistic effect. The activity expected by the combination of two active ingredients can be calculated as follows (Colby S. […] E1=α+β-(α×β÷100) On the 22nd day after treatment, the state of growth of the common cocklebur was visually observed to determine the growth inhibition rate in accordance with the following evaluation standard. The growth inhibition rate (%) (measured value) and the growth inhibition rate (%) (calculated value) calculated by the Colby's formula are shown in Table 1. […] Upland field soil was put into a 1/1,000,000 ha pot, and rhizomes of green […] brevifolia Rottb. var. leiolepis) having lowered sensitivity to herbicides were planted. When the height of green […] reached 5 to 7 cm, predetermined amounts of […] Dual Gold (tradename) were diluted with water (corresponding to 300 Uha) and applied for foliar treatment by a small sprayer. On the 21st day after treatment, the state of growth of the green […] visually observed to determine the growth inhibition rate.

a mixture of (aRS,1S)-2-chloro-6′-ethyl-N-(2-methoxy-1-methylethyl)aceto-o-toluidide (80 to 100%) and (aRS,1R)-2-chloro-6′-ethyl-N-(2-methoxy-1-methylethyl)aceto-o-toluidide (20 to 0%) [S-metolachlor]
Growth inhibition rate (%) of spotted knotweed, Measured value ([1]; dose 1000 g/ha): 0% | Growth inhibition rate (%) of summergrass, Measured value ([2]; dose 500 g/ha): 0% | Growth inhibition rate (%) of summergrass, Measured value ([2]; dose 2000 g/ha): 0% | Growth inhibition rate (%) of annual bluegrass, Measured value ([3]; dose 1000 g/ha): 18% | Growth inhibition rate (%) of annual bluegrass, Measured value ([3]; dose 2000 g/ha): 28% | Growth inhibition rate (%) of wild oat, Measured value ([4]; dose 250 g/ha): 15% | Growth inhibition rate (%) of wild oat, Measured value ([4]; dose 2000 g/ha): 60% | Growth inhibition rate (%) of green kyllinga, Measured value ([5]; dose 500 g/ha): 15% | Growth inhibition rate (%) of green kyllinga, Measured value ([5]; dose 1000 g/ha): 45%

COc1cc(OC)nc(NC(=O)NS(=O)(=O)c2ncccc2C(=O)N(C)C)n1 [Nicosulfuron, 2-(4,6-dimethoxypyrimidin-2-ylcarbamoylsulfamoyl)-N,N-dimethylnicotinamide]
inhibition at 30 g/ha ([1]; Persicaria lapathifolia, dose 30 g/ha, read-out: Growth inhibition rate (%) of spotted knotweed, Measured value): 75% | inhibition at 15 g/ha ([2]; Digitaria ciliaris, dose 15 g/ha, read-out: Growth inhibition rate (%) of summergrass, Measured value): 53% | inhibition at 100 g/ha ([3]; Poa annua, dose 100 g/ha, read-out: Growth inhibition rate (%) of annual bluegrass, Measured value): 87% | inhibition at 10 g/ha ([4]; Avena fatua, dose 10 g/ha, read-out: Growth inhibition rate (%) of wild oat, Measured value): 10% | inhibition at 100 g/ha ([4]; Avena fatua, dose 100 g/ha, read-out: Growth inhibition rate (%) of wild oat, Measured value): 40% | inhibition at 30 g/ha ([5]; Cyperus brevifolius, dose 30 g/ha, read-out: Growth inhibition rate (%) of green kyllinga, Measured value): 20% | inhibition at 100 g/ha ([5]; Cyperus brevifolius, dose 100 g/ha, read-out: Growth inhibition rate (%) of green kyllinga, Measured value): 40%
